This is an account of results in paper PMC6447718, “PACAP-38 and PACAP(6–38) Degranulate Rat Meningeal Mast Cells via the Orphan MrgB3-Receptor” (Frontiers in Cellular Neuroscience, 2019).

In test [1] the test system is MrgB3-receptor (RGD1560730). The test is described as follows: Two-electrode voltage clamp on MrgB3-receptor-expressing Xenopus laevis oocytes. The settings on record: 1–10 μM, holding potential −70 mV. It is filed as cell-based, rat. From the text: (§1) DNA of the coding region of Rattus Norvegicus Adcyap1r1 variant 5 (NM_001270582.1) encoding the null-splice variant (short N-terminal and neither exon 14 or 15) of the PAC1-receptor (Vector: EX-Rn10199-M03) was ordered from GeneCopoeia. DNA encoding the RGD1560730 gene (XM_006229262.3, GenScript), was cloned into the pXOOM vector as previously described (Jespersen et al., [2002]). DNA was purified using Plasmid DNA Purification NucleoBond Xtra Midi-kit (Macherey-Nagel). […] Extracted plasmids were linearized down-stream the poly(A) segment using the XhoI restriction enzyme (New England Biolabs, Ipswich, MA, USA). RNA was in vitro transcribed by synthetization from the T7 RNA polymerase promoter using the mMessenger mMachine kit (Ambion) according to manufacturer’s protocol. Messenger RNA was purified using the MEGAclear kit (Ambion). Transcribed RNA integrity was assessed by agarose gel electrophoresis.
(§2) Stage V and VI defolliculated Xenopus laevis oocytes were purchased from EcoCyte Bioscience (Dortmund, Germany) and kept in Kulori medium (90 mM NaCl, 4 mM KCl, 1 mM MgCl2, 1 mM CaCl2, and 5 mM Hepes, pH 7.4). Oocytes were micro-injected with 50 nl mRNA solution containing 30 ng RNA per oocyte and incubated at 19°C. Currents were measured after 2–5 days using a conventional two-electrode-voltage clamp (TEVC). The oocytes were placed in a 200 μl chamber and continuously exposed to a flow of Kulori medium with or without ligands (1 ml/min) while impaled with both a current and a voltage electrode filled with 3 M KCl and connected to an Oocyte Clamp Amplifier [Warner Instruments Corp. (OC-725 B) and a PC-interface (Digidata1440A, Molecular Devices)]. Current amplitude in absence or presence of ligands were analyzed using pClamp 10.2 software (Molecular Devices). All experiments were performed with oocyte membrane voltages constantly clamped to −70 mV and the temperature was kept between 19 and 22°C. In activation experiments, non-responding as well as low-responding (<10 nA) oocytes were excluded from the dataset. Ligands PACAP-38, PACAP-27, PACAP(6–38) were custom synthetized by Caslo (Lyngby, Denmark) while maxadilan was purchased from Bachem (Bubendorf, Switzerland).
(§3) Concentration-response curves for both oocytes and dural mast cells were analyzed for overall effects of PACAP-38 and -27 by two-way analyses of variance (ANOVA) followed by Sidak’s test for multiple pairwise comparisons. Effects of PAC1-receptor ligands on mast cell degranulation or on receptor-expressing oocytes were analyzed with a one-way ANOVA followed by Tukey’s multiple comparisons test. The effect of PACAP-38 and PACAP(6–38) on MrgB3-expressing oocytes were analyzed by an unpaired two-tailed t-test. Differences between groups were considered significant when p < 0.05 and data are presented as mean with standard error of the mean (±SEM). GraphPad Prism 7 (GraphPad Prism Software, San Diego, CA, USA) was used for statistical analysis.
(In two-electrode clamp one electrode senses voltage and the other passes current.)

Test [2] deals with rat peritoneal mast cells. Particulars: rat peritoneal mast cells; ref Baun et al., 2012; cited from earlier work. An excerpt: Inspired by clinical findings, we have previously characterized the degranulating effect of various PACAP-analogues on isolated rat peritoneal mast cells. Based on the expectation that degranulation is mediated through the PAC1-receptor, we found an unpredicted order of potency (Baun et al., [2012]).

The next test relates to VPAC2. The settings on record: cited from earlier work. From the text:
(§4) Pituitary adenylate cyclase-activating peptide-38 (PACAP-38) is a 38-amino acid neuropeptide located in both sensory and parasympathetic perivascular nerve fibers (Moller et al., [1993]; Mulder et al., [1994]). A C-terminal truncated 27-amino acid (PACAP-27) version is endogenously present as well but is less abundant (Miyata et al., [1990]; Arimura et al., [1991]; Ogi et al., [1993]).

A further test has as its system VPAC1. Particulars: cited from earlier work.
Source text: as §4

The test system of test [3] is PAC1-receptor (Rattus Norvegicus Adcyap1r1 variant 5, null-splice variant). The test is described as follows: Antagonism of PACAP-38-induced currents in PAC1-receptor-expressing oocytes (TEVC). It is filed as cell-based.
Source text: as §1, with “RNA was in vitro transcribed by synthetization from the T7 RNA polymerase promoter using the mMessenger mMachine kit (Ambion) according to manufacturer’s protocol. Messenger RNA was purified using the MEGAclear kit (Ambion).” left out
Stage V and VI defolliculated Xenopus laevis oocytes were purchased from EcoCyte Bioscience (Dortmund, Germany) and kept in Kulori medium (90 mM NaCl, 4 mM KCl, 1 mM MgCl2, 1 mM CaCl2, and 5 mM Hepes, pH 7.4). […] Currents were measured after 2–5 days using a conventional two-electrode-voltage clamp (TEVC). […] Current amplitude in absence or presence of ligands were analyzed using pClamp 10.2 software (Molecular Devices). […]
Concentration-response curves for both oocytes and dural mast cells were analyzed for overall effects of PACAP-38 and -27 by two-way analyses of variance (ANOVA) followed by Sidak’s test for multiple pairwise comparisons. […]

For a further test, the system named is rat meningeal mast cells. The test is described as follows: Mast cell degranulation in hemi-skull preparations (dura mater, toluidine blue staining, microscopic count). The format is cell-based, rat (male Sprague-Dawley). The protocol: Mast cell degranulation was performed as previously described (Pedersen et al., [2015]). In brief, skulls were cut mid-sagittal and the brain halves were removed, leaving the dura mater undisturbed. This was followed by immediate addition of either 350 μl 0.1, 1 or 10 μM PACAP-38 (custom synthesis by Caslo Laboratory ApS, Lyngby, Denmark) or vehicle (saline) in phosphate buffered saline (PBS). After 30 s incubation, the reactions were terminated, and the skulls were fixated in 4% paraformaldehyde in phosphate buffered saline (PBS; Glostrup Hospital Pharmacy, Denmark). The dura mater was dissected from the skull, whole mounted on slides, and mast cells were visualized by staining with 0.1% acidified toluidine blue (Sigma Aldrich, Germany). Tissues were dehydrated in graded alcohols prior to cover slip mounting. The level of mast cell degranulation was evaluated by 400× magnification (Nikon Eclipse Ni microscope) by a researcher blinded to the treatment and was counted in 10 consecutive fields along the stem part of the middle meningeal artery. Mast cells were considered degranulated if an extensive dispersion of more than 10 extruded granules were localized outside the cell or if an extensive loss of staining gave the cell a “ghostly” look.
as §3

Test [4] deals with PAC1-receptor (Rattus Norvegicus Adcyap1r1 variant 5, null-splice variant). The format is cell-based.
Source text: as §1, §2, §3

A further test deals with MrgB3-receptor. The settings on record: ref Tatemoto et al., 2006; cited from earlier work. From the text: The exact mechanism of basic secretagogue-mediated mast cell degranulation remains unclear. […] However, this would require the ability of peptides, despite their positive charge, to diffuse across the membrane in order to reach intracellular G-proteins, and as this has not been shown, the hypothesis seems unlikely (Tat ...

For the next test, the system named is PAC1-receptor. The settings on record: relative to PACAP; ref Miyata et al., 1989, 1990; Harmar et al., 1998; cited from earlier work. From the text: Pituitary adenylate cyclase-activating peptide-38 (PACAP-38) is a 38-amino acid neuropeptide located in both sensory and parasympathetic perivascular nerve fibers (Moller et al., [1993]; Mulder et al., [1994]). A C-terminal truncated 27-amino acid (PACAP-27) version is endogenously present as well but is less abundant (Miyata et al., [1990]; Arimura et al., [1991]; Ogi et al., [1993]). […] At present, three PACAP-receptors have been identified: PA ... || Several different splice variants of the PAC1-receptor have been identified in rats. Splice sites in the extracellular N-terminal domain and the third intracellular loop account for fine tuning of ligand affinity and signal transduction through adenylate cyclase or PLC activation (Deutsch and Sun, [1992]; Spengler et al., [1993]).

The test system of the next test is VPAC2-receptor. Also on record: method as in Harmar et al., 2012. Particulars: PACAP-38, PACAP-27 and VIP compared; ref Harmar et al., 2012; cited from earlier work.
Test [5] has as its system calcitonin gene-related peptide (CGRP) release from the trigeminal nucleus caudalis. The settings on record: ref Jansen-Olesen et al., 2014; cited from earlier work. An excerpt: Future studies will have to rule out if MrgB3-receptors are involved in PACAP- ...
The subject of the next test is VPAC1-receptor. Also on record: method as in Harmar et al., 2012. The settings on record: PACAP-38, PACAP-27 and VIP compared; ref Harmar et al., 2012; cited from earlier work.
The test system of a further test is migraine patients. The settings on record: migraineurs; ref Rahmann et al., 2008; cited from earlier work.
Source text: as §4, with “[1993]). […] Degranulation of mast cells can be induced either by an allergen-IgE-dependent mechanism or via an IgE-independent mechanism. The latter mechanism can be activated by a group of molecules known as basic secretagogues.” for “[1993]).”

The mark [6] stands for this setting: ref Spengler et al., 1993, Pantaloni et al., 1996.

“Also recorded” adds a separate entry of the source. Ends that are not written are not given here.

“Pituitary Adenylate Cyclase Activating Peptide(6–38) (FTDSYSRYRKQMAVKKYLAAVLGKRYKQRVKNK; ends and bridges not checked; UniProt P18509 137-169, looked up, fragment) [PACAP(6–38), PAC1-receptor antagonist, custom synthetized by Caslo]”: the “activation of MrgB3-receptor (result in words)” value in test [1] is on record as “agonistic effect on MrgB3-receptors expressed in oocytes; also recorded: equipotent to PACAP-38; also recorded: induce a significant current in MrgB3-receptor-expressing oocytes”. Further, in test [2], the “peritoneal mast cell degranulation (result in words)” value is on record as “pronounced mast cell degranulation; also recorded: as potent as PACAP-38”. Moreover, the “affinity to VPAC2-receptor (result in words)” value with VPAC2 (ref Harmar et al., 2012) is recorded as “has not been shown to have an affinity”. For the same substance, the “affinity to VPAC1-receptor (result in words)” value in the test with VPAC1 (ref Harmar et al., 2012) is “has not been shown to have an affinity”. In [3] (PACAP(6–38) 0.1 μM together with PACAP-38, one-way ANOVA, Tukey's test), the “inhibition of PACAP-38 induced responses (result in words)” value is recorded as “significantly antagonized; also recorded: significant inhibition of PACAP-38 induced responses”. For the same substance, the “PACAP-38-induced current in presence of antagonist” value in test [3] (PACAP(6–38) administered together with PACAP-38 in 0.1 μM, −70 mV, n = 10, mean ± SEM, PACAP-38 alone −0.18 ± 0.5 μA) was −0.05 ± 0.02 μA. The substance also came in with a mast cell degranulation in the test with rat meningeal mast cells (10 μM, Figure 6A, PACAP(6–38) n = 7 (p < 0.0001), PACAP-38 n = 5, mean ± SEM) of 93 ± 2%. Moreover, the “mast cell degranulation (result in words)” value in the test on rat meningeal mast cells (0.1 to 10 μM, 30 s, rat meningeal mast cells) is on record as “as potent as PACAP-38; also recorded: potent degranulator of rat meningeal mast cells”. Further, the current in test [4] (0.1 μM alone, 1 min perfusion, −70 mV, Figure 6B, n = 9, mean ± SEM) was −5 ± 6 nA. Also, the “activation of PAC1-receptor / relative potency (result in words)” value in test [4] (0.01 to 1 μM, holding potential −70 mV) is “unable to induce currents”.
With [D-Trp^7,9,10]-substance P, in the test on MrgB3-receptor, the “affinity to MrgB3-receptor (result in words)” value is listed as “affinity”.
As to vasoactive intestinal peptide [VIP], in the test with PAC1-receptor, the “binding to the PAC1-receptor, times lower than PACAP” value is recorded as 1,000 times. In addition, the “peritoneal mast cell degranulation (result in words)” value in test [2] was “not PACAP-27 and VIP, caused degranulation; also recorded: weak degranulating effect”. In addition, the “affinity to VPAC2 relative to PACAP (result in words)” value in the test with VPAC2 (setting [6]) is given as “equals that of PACAP”. Moreover, the “affinity to VPAC1 relative to PACAP (result in words)” value in the test with VPAC1 (setting [6]) is listed as “equals that of PACAP”. In the test with VPAC2-receptor, the “profile on VPAC2-receptor (result in words)” value is given as “equipotent”. For the same substance, the “release of CGRP from the trigeminal nucleus caudalis (result in words)” value in test [5] is reported as “neither VIP, PACAP-27 nor maxadilan, mediated the release”. In addition, the “profile on VPAC1-receptor (result in words)” value in the test on VPAC1-receptor was “equipotent”. Besides, the “migraine attacks / headache after infusion (result in words)” value in the test with migraine patients was “only induces a mild headache and no migraine-like attacks in migraineurs; also recorded: does not provoke migraine headache”.
